Test results reported in PubChem BioAssay (NCI).
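Five concentrations, 48 hours, 96-well plates. Here, GI50 denotes the concentration required for 50% inhibition of growth. TGI: concentration producing complete growth inhibition.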

Legend:
Assay in all cases: NCI tumour cell line growth inhibition, 48 h
HT29 colon = tested on: HT29 colon
SW-620 colon = tested on: SW-620 colon
NCI-H460 lung = tested on: NCI-H460 lung
K-562 leukemia = tested on: K-562 leukemia
DU-145 prostate = tested on: DU-145 prostate
TK-10 renal = tested on: TK-10 renal
U251 CNS = tested on: U251 CNS
UO-31 renal = tested on: UO-31 renal
A498 renal = tested on: A498 renal
MCF7 breast = tested on: MCF7 breast
786-0 renal = tested on: 786-0 renal
M14 melanoma = tested on: M14 melanoma
SK-OV-3 ovarian = tested on: SK-OV-3 ovarian
T-47D breast = tested on: T-47D breast
MOLT-4 leukemia = tested on: MOLT-4 leukemia
HCC-2998 colon = tested on: HCC-2998 colon
CAKI-1 renal = tested on: CAKI-1 renal
MDA-MB-231 breast = tested on: MDA-MB-231 breast
HCT-116 colon = tested on: HCT-116 colon
SNB-19 CNS = tested on: SNB-19 CNS
OVCAR-5 ovarian = tested on: OVCAR-5 ovarian
UACC-62 melanoma = tested on: UACC-62 melanoma
SF-539 CNS = tested on: SF-539 CNS
NCI/ADR-RES ovarian = tested on: NCI/ADR-RES ovarian
OVCAR-8 ovarian = tested on: OVCAR-8 ovarian
HOP-62 NSCLC = tested on: HOP-62 NSCLC
SF-268 CNS = tested on: SF-268 CNS
OVCAR-4 ovarian = tested on: OVCAR-4 ovarian
SNB-75 CNS = tested on: SNB-75 CNS
NCI-H226 lung = tested on: NCI-H226 lung
LOX IMVI melanoma = tested on: LOX IMVI melanoma
IGROV1 ovarian = tested on: IGROV1 ovarian
SR leukemia = tested on: SR leukemia
BT-549 breast = tested on: BT-549 breast
HCT-15 colon = tested on: HCT-15 colon
A549 NSCLC = tested on: A549 NSCLC
RPMI-8226 leukemia = tested on: RPMI-8226 leukemia
SK-MEL-5 melanoma = tested on: SK-MEL-5 melanoma
MALME-3M melanoma = tested on: MALME-3M melanoma
KM12 colon = tested on: KM12 colon
HOP-92 NSCLC = tested on: HOP-92 NSCLC
COLO 205 colon = tested on: COLO 205 colon
EKVX NSCLC = tested on: EKVX NSCLC
SN12C renal = tested on: SN12C renal
SK-MEL-2 melanoma = tested on: SK-MEL-2 melanoma
SF-295 CNS = tested on: SF-295 CNS
ACHN renal = tested on: ACHN renal
OVCAR-3 ovarian = tested on: OVCAR-3 ovarian
NCI-H23 lung = tested on: NCI-H23 lung
RXF 393 renal = tested on: RXF 393 renal
HS 578T breast = tested on: HS 578T breast
PC-3 prostate = tested on: PC-3 prostate
NCI-H522 lung = tested on: NCI-H522 lung
UACC-257 melanoma = tested on: UACC-257 melanoma
HL-60(TB) leukemia = tested on: HL-60(TB) leukemia
CCRF-CEM leukemia = tested on: CCRF-CEM leukemia
MDA-MB-435 = tested on: MDA-MB-435
SK-MEL-28 melanoma = tested on: SK-MEL-28 melanoma

Compound: CCOC(=O)c1ccc2c(c1)c1c(C)c3ccncc3c(C)c1n2C
- GI50 (HT29 colon): 362 nM
- TGI (HT29 colon): 1780 nM
- GI50 (SW-620 colon): 322 nM
- TGI (SW-620 colon): 1800 nM
- GI50 (NCI-H460 lung): 680 nM
- TGI (NCI-H460 lung): 3460 nM
- GI50 (K-562 leukemia): 413 nM
- TGI (K-562 leukemia): 2530 nM
- GI50 (DU-145 prostate): 546 nM
- TGI (DU-145 prostate): 2330 nM
- GI50 (TK-10 renal): 1150 nM
- TGI (TK-10 renal): 3050 nM
- GI50 (U251 CNS): 468 nM
- TGI (U251 CNS): 1980 nM
- GI50 (UO-31 renal): 165 nM
- TGI (UO-31 renal): 1400 nM
- GI50 (A498 renal): 664 nM
- TGI (A498 renal): 2050 nM
- GI50 (MCF7 breast): 346 nM
- TGI (MCF7 breast): 1750 nM
- GI50 (786-0 renal): 642 nM
- TGI (786-0 renal): 2030 nM
- GI50 (M14 melanoma): 505 nM
- TGI (M14 melanoma): 2080 nM
- GI50 (SK-OV-3 ovarian): 721 nM
- TGI (SK-OV-3 ovarian): 2990 nM
- GI50 (T-47D breast): 855 nM
- TGI (T-47D breast): 3500 nM
- GI50 (MOLT-4 leukemia): 393 nM
- TGI (MOLT-4 leukemia): 3190 nM
- GI50 (HCC-2998 colon): 1090 nM
- TGI (HCC-2998 colon): 2950 nM
- GI50 (CAKI-1 renal): 287 nM
- TGI (CAKI-1 renal): 1490 nM
- GI50 (MDA-MB-231 breast): 622 nM
- TGI (MDA-MB-231 breast): 2400 nM
- GI50 (HCT-116 colon): 287 nM
- TGI (HCT-116 colon): 1380 nM
- GI50 (SNB-19 CNS): 441 nM
- TGI (SNB-19 CNS): 2320 nM
- GI50 (OVCAR-5 ovarian): 796 nM
- TGI (OVCAR-5 ovarian): 2840 nM
- GI50 (UACC-62 melanoma): 378 nM
- TGI (UACC-62 melanoma): 1730 nM
- GI50 (SF-539 CNS): 467 nM
- TGI (SF-539 CNS): 1920 nM
- GI50 (NCI/ADR-RES ovarian): 470 nM
- TGI (NCI/ADR-RES ovarian): 2900 nM
- GI50 (OVCAR-8 ovarian): 436 nM
- TGI (OVCAR-8 ovarian): 3250 nM
- GI50 (HOP-62 NSCLC): 408 nM
- TGI (HOP-62 NSCLC): 2160 nM
- GI50 (SF-268 CNS): 846 nM
- TGI (SF-268 CNS): 3480 nM
- GI50 (OVCAR-4 ovarian): 745 nM
- TGI (OVCAR-4 ovarian): 2550 nM
- GI50 (SNB-75 CNS): 380 nM
- TGI (SNB-75 CNS): 1950 nM
- GI50 (NCI-H226 lung): 260 nM
- TGI (NCI-H226 lung): 1450 nM
- GI50 (LOX IMVI melanoma): 349 nM
- TGI (LOX IMVI melanoma): 1620 nM
- GI50 (IGROV1 ovarian): 211 nM
- TGI (IGROV1 ovarian): 1460 nM
- GI50 (SR leukemia): 269 nM
- TGI (SR leukemia): 3950 nM
- GI50 (BT-549 breast): 1270 nM
- TGI (BT-549 breast): 3700 nM
- GI50 (HCT-15 colon): 381 nM
- TGI (HCT-15 colon): 1650 nM
- GI50 (A549 NSCLC): 382 nM
- TGI (A549 NSCLC): 1880 nM
- GI50 (RPMI-8226 leukemia): 440 nM
- TGI (RPMI-8226 leukemia): 2440 nM
- GI50 (SK-MEL-5 melanoma): 384 nM
- TGI (SK-MEL-5 melanoma): 1510 nM
- GI50 (MALME-3M melanoma): 375 nM
- TGI (MALME-3M melanoma): 1680 nM
- GI50 (KM12 colon): 517 nM
- TGI (KM12 colon): 2580 nM
- GI50 (HOP-92 NSCLC): 303 nM
- TGI (HOP-92 NSCLC): 2360 nM
- GI50 (COLO 205 colon): 350 nM
- TGI (COLO 205 colon): 1820 nM
- GI50 (EKVX NSCLC): 384 nM
- TGI (EKVX NSCLC): 2370 nM
- GI50 (SN12C renal): 457 nM
- TGI (SN12C renal): 2310 nM
- GI50 (SK-MEL-2 melanoma): 897 nM
- TGI (SK-MEL-2 melanoma): 2580 nM
- GI50 (SF-295 CNS): 516 nM
- TGI (SF-295 CNS): 4630 nM
- GI50 (ACHN renal): 265 nM
- TGI (ACHN renal): 1320 nM
- GI50 (OVCAR-3 ovarian): 692 nM
- TGI (OVCAR-3 ovarian): 2620 nM
- GI50 (NCI-H23 lung): 376 nM
- TGI (NCI-H23 lung): 1980 nM
- GI50 (RXF 393 renal): 349 nM
- TGI (RXF 393 renal): 1670 nM
- GI50 (HS 578T breast): 543 nM
- TGI (HS 578T breast): 3240 nM
- GI50 (PC-3 prostate): 486 nM
- TGI (PC-3 prostate): 2150 nM
- GI50 (NCI-H522 lung): 564 nM
- TGI (NCI-H522 lung): 2550 nM
- GI50 (UACC-257 melanoma): 472 nM
- TGI (UACC-257 melanoma): 2600 nM
- GI50 (HL-60(TB) leukemia): 1160 nM
- TGI (HL-60(TB) leukemia): 6080 nM
- GI50 (CCRF-CEM leukemia): 851 nM
- TGI (CCRF-CEM leukemia): 8640 nM
- GI50 (MDA-MB-435): 649 nM
- TGI (MDA-MB-435): 1960 nM
- GI50 (SK-MEL-28 melanoma): 539 nM
- TGI (SK-MEL-28 melanoma): 1900 nM
